Patent publication US10196357B2, “Biaryl compositions and methods for modulating a kinase cascade” (Athenex, Inc., priority 2007, dated 2019)
“And” between values parts separate entries of the source, which are not always exact repeats. Equal values may be shown once.

How the values were obtained:
[1] = body weight in GL261 glioma survival study; format: in vivo; settings: C57BL/6 mice
Procedure: A brain tumor mouse xenograft study was conducted comparing KX2-361 and KX2-391 (KXO1) to Temodar®. The studies were conducted in C57BL/6 mice. GL261 glioma cells (1×10^5 in 5 μl DMEM) were implanted intracranial coordinates: bregma, lateral 2.0 mm, anterior 1.2 mm, 3.0 mm depth dura. Treatment was initiated 3 days post implantation. The groups were as follows (all doses in 100 μl H2O):
FIGS. 49A-E show the weight gain in each of the C57BL/6 mice in the different treatment groups. The average weight at endpoint for each of the treatment groups is shown below in Table 30. FIG. 50 is a graph showing the average weights over a 40-day period for each of the treatment groups.

[2] = plasma exposure after oral administration; format: in vivo, male CD-1 mice; settings: Male CD-1 mice
Procedure: Plasma concentrations were measured in mice after oral administration. All doses were formulated in purified water. Four groups of male CD-1 mice were dosed after an overnight fast and fed 4 hours post-dose. Dosing was as follows:
Protein was precipitated with 0.25 mL acetonitrile for plasma, 0.25 mL for brain. After centrifugation, supernatant was directly injected into an LC/MS system. The limit of quantitation was 1 ng/mL using a 50 μL aliquot for plasma and a 50 μL, aliquot for brain. The standard curve was 1 to 1,000 ng/mL for both plasma and brain. HPLC conditions were as follows:
HPLC System: Shimadzu SCL-10 System
• Analytical Column: Aquasil C18 5 μm 100×2 mm column. • Column Temperature: Ambient temperature • Autosampler Temperature: Ambient temperature • Mobile Phase A) 10 mM Ammonium formate in water (pH 4). • B) Acetonitrile. • Flow Rate: 0.6 mL/min • Injection Volume: 2 μL • Gradient:
• Mass Spectrometry Conditions were as follows: • Instrument: ABI Sciex API 4000 • Mode: ESI+ • Experiment: MRM (multiple reaction monitoring) • Transitions: KX2-391: m/z 432.4→114.2 (Rt=3.11 minute) • KX2-361: m/z 406.1→253.2 (Rt=3.33 minute)

[3] = system: MOLT-4 (Adult lymphoblastic leukemia); test: growth inhibition, MOLT-4; format: cell-based, Human
SK-N-FI = test: brain tumor cell growth inhibition, SK-N-FI; format: cell-based, Human; settings: neuroblastoma, read-out: IC50 (title: GI50)
SKOV-3 (Ovarian) = test: growth inhibition (BrdU), SKOV-3; format: cell-based, Human; settings: SKOV-3 (Ovarian) cells
Text: (§1) Growth Inhibition. […] T1 values≤T0 values were designated as T, cytotoxicity.

K562 (CML) = test: growth inhibition (BrdU), K562; format: cell-based, Human; settings: K562 (CML)
Text: as §1

Ba/F3 + WT BCR-Abl = test: MTT growth inhibition, Ba/F3 + WT BCR-Abl; format: cell-based; settings: 96 hrs
Text: Cultures of Ba/F3 cells were also transfected to express wild-type (WT) Bcr-Abl, E255K mutation of Bcr-Abl, or T315I mutation of Bcr-Abl and cultured in 96-well plates in complete media without IL-3. The Ba/F3 cell line is rendered Gleevec resistant when the mutation in the Bcr/Abl tyrosine kinase […] is present. […] All assays are in triplicate.

PC3-MM2 (Prostate) = test: growth inhibition, PC3-MM2; format: cell-based, Human; settings: PC3-MM2 (Prostate) cells
L3.6pl cells = test: growth inhibition (BrdU), L3.6pl; format: cell-based, human; settings: L3.6pl (Pancreas) cells, single agent
Text: L3.6pl cells are previously described in Trevino et al. Am J Pathol.

Shc Y239/240 = test: intracellular phosphorylation, Shc Y239/240; format: cell-based; settings: whole cells
Procedure: HT29 (colon cancer) and c-Src527F/NIH-3T3 (Src transformed) cell lines were treated with KX2-391 or with AstraZeneca's ATP competitive Src inhibitor AZ28. AZ28 serves as a positive comparator to show what a validated Src inhibitor should do in these assays. After treatment with compound, cells were lysed, subjected to PAGE and probed with a battery of antibodies. […] In addition, off-target protein phosphorylation was also investigated. Further, induction of apoptosis was evaluated via Caspase 3 cleavage. Multiple doses of each compound were tested because the trends in response to increasing drug concentration are the most reliable indicator of activity.
The same range of multiples of the GI50 for AZ28 in these two cell lines was run as a comparison.
KX2-391 and AZ28 inhibited Src transphosphorylation.

Lyn Y416 = test: whole cell phosphorylation, Lyn; format: cell-based; settings: whole cells
[4] = single PO dose 10 mg/kg (Group 3), 0 hr
[5] = single PO dose 10 mg/kg (Group 3), 0.5 hr
[6] = single PO dose 10 mg/kg (Group 3), 1 hr
[7] = single PO dose 10 mg/kg (Group 3), 2 hr
[8] = single PO dose 10 mg/kg (Group 3), 5 hr
[9] = single PO dose 50 mg/kg (Group 4), 0 hr
[10] = single PO dose 50 mg/kg (Group 4), 0.5 hr
[11] = single PO dose 50 mg/kg (Group 4), 1 hr
[12] = single PO dose 50 mg/kg (Group 4), 2 hr
[13] = single PO dose 50 mg/kg (Group 4), 5 hr

O=C(Cc1ccc(-c2ccc(N3CCOCC3)cc2)cn1)NCc1cccc(F)c1 [KX2-361]
Average weight at endpoint ([1]; 15 mg/kg): 16.9 g | Average weight at endpoint ([1]; 30 mg/kg): 15.0 g | KX2-361 Plasma Concentrations, Group A [2, 4]: BLQ (BLQ: Below Limit of Quantitation (1 ng/mL)) | KX2-361 Plasma Concentrations, Group B [2, 4]: BLQ (BLQ: Below Limit of Quantitation (1 ng/mL)) | KX2-361 Plasma Concentrations, Group C [2, 4]: BLQ (BLQ: Below Limit of Quantitation (1 ng/mL)) | KX2-361 Plasma Concentrations, Group A [2, 5]: 65.93 ng/mL | KX2-361 Plasma Concentrations, Group B [2, 5]: 217.56 ng/mL | KX2-361 Plasma Concentrations, Group C [2, 5]: 159.53 ng/mL | KX2-361 Plasma Concentrations, Group A [2, 6]: 284.09 ng/mL | KX2-361 Plasma Concentrations, Group B [2, 6]: 596.31 ng/mL | KX2-361 Plasma Concentrations, Group C [2, 6]: 398.35 ng/mL | KX2-361 Plasma Concentrations, Group A [2, 7]: 153.07 ng/mL | KX2-361 Plasma Concentrations, Group B [2, 7]: 118.96 ng/mL | KX2-361 Plasma Concentrations, Group C [2, 7]: 342.45 ng/mL | KX2-361 Plasma Concentrations, Group A [2, 8]: 2.63 ng/mL | KX2-361 Plasma Concentrations, Group B [2, 8]: 64.15 ng/mL | KX2-361 Plasma Concentrations, Group C [2, 8]: 53.18 ng/mL | KX2-361 Plasma Concentrations, Group A [2, 9]: BLQ (BLQ: Below Limit of Quantitation (1 ng/mL)) | KX2-361 Plasma Concentrations, Group B [2, 9]: BLQ (BLQ: Below Limit of Quantitation (1 ng/mL)) | KX2-361 Plasma Concentrations, Group C [2, 9]: BLQ (BLQ: Below Limit of Quantitation (1 ng/mL)) | KX2-361 Plasma Concentrations, Group B [2, 10]: 2316.91 ng/mL | KX2-361 Plasma Concentrations, Group C [2, 10]: 1587.18 ng/mL | KX2-361 Plasma Concentrations, Group A [2, 11]: 1805.19 ng/mL | KX2-361 Plasma Concentrations, Group B [2, 11]: 969.48 ng/mL | KX2-361 Plasma Concentrations, Group C [2, 11]: 3635.91 ng/mL | KX2-361 Plasma Concentrations, Group A [2, 12]: 475.13 ng/mL | KX2-361 Plasma Concentrations, Group B [2, 12]: 1710.13 ng/mL | KX2-361 Plasma Concentrations, Group C [2, 12]: 1709.02 ng/mL | KX2-361 Plasma Concentrations, Group A [2, 13]: 138.53 ng/mL | KX2-361 Plasma Concentrations, Group B [2, 13]: 252.81 ng/mL | KX2-361 Plasma Concentrations, Group C [2, 13]: 298.99 ng/mL

O=C(Cc1ccc(-c2ccc(OCCN3CCOCC3)cc2)cn1)NCc1ccccc1 [KXO1]
GI50 [3]: 13 nM | IC50 (SK-N-FI): 1.7 nM | GI50 (SKOV-3 (Ovarian)): 9.8 nM | GI50 (K562 (CML)): 13 nM | GI50 (Ba/F3 + WT BCR-Abl): 85 nM | GI50 (PC3-MM2 (Prostate)): 8.9 nM | GI50 (L3.6pl cells): 25 nM and 32 nM | phosphorylation of Shc Y239/240 (Src transphosphorylation) (Shc Y239/240): potent inhibitor | phosphorylation of Lyn Y416 (Lyn Y416): inhibited less potently
